From patent publication US6939882B1 (priority 1999, dated 2005)

Key:
[1] = test system: Phytophthora infestans; assay type: in vivo; details: concentration of 500 ppm (w/v) or less, spray or stem base drench
[2] = test system: Pyricularia oryzae; assay type: in vivo; details: concentration of 500 ppm (w/v) or less, spray or stem base drench
[3] = test system: Plasmopara viticola; details: in vivo; further: key: 1 is little or no control; 2 is moderate control; 3 is good to total control
[4] = test system: Leptosphaeria nodorum; details: in vivo; further: key: 1 is little or no control; 2 is moderate control; 3 is good to total control

SMILES	score of disease control (degree of infection visually estimated) [2]	score of disease control (degree of infection visually estimated) [3]	further results
CC(NC(=O)c1ncc(C(F)(F)F)cc1Cl)c1c(F)cccc1F (stereo not drawn) [Compound 202]			score of disease control (degree of infection visually estimated) [1]: 2
N#CC(=NOc1ncc(C(F)(F)F)cc1Cl)c1c(Cl)cccc1Cl (single isomer, unassigned) [Compound 937]	2		
FC(F)(F)c1cnc(ON=C(c2ccc(Cl)cc2)c2ccc(Cl)cc2)c(Cl)c1 [Compound 958]		2	
CCC(=NOc1ncc(C(F)(F)F)cc1Cl)c1ccccc1 [Compound 922]	2		
COc1ccc(C=NOc2ncc(C(F)(F)F)cc2Cl)cc1 [Compound 914]		2	
Cc1nc(C)c(C(=O)NOc2ncc(C(F)(F)F)cc2Cl)s1 [Compound 1007]			score of disease control (degree of infection visually estimated) [4]: 2
O=C(C=Cc1ncc(C(F)(F)F)cc1Cl)c1ccccc1[N+](=O)[O-] [Compound 601, 3-[3-Chloro-5-(trifluoromethyl)-2-pyridyl]-1-(2-nitrophenyl)-2-propen-1-one]		2	score of disease control (degree of infection visually estimated) [1]: 2
COc1ccc(OC)c(CNCc2ncc(C(F)(F)F)cc2Cl)c1 [Compound 49]			score of disease control (degree of infection visually estimated) [1]: 2
O=C(NOc1ncc(C(F)(F)F)cc1Cl)c1ccccc1Cl [Compound 1013]		2	
O=C(NNc1ncc(C(F)(F)F)cc1Cl)c1c(F)cccc1Cl [Compound 126]	2	2	score of disease control (degree of infection visually estimated) [1]: 2; score of disease control (degree of infection visually estimated) [4]: 2
CC(=NOc1ncc(C(F)(F)F)cc1Cl)c1ccccc1C [Compound 907]	2	2	
CCOC(=O)C(c1ncc(C(F)(F)F)cc1Cl)N(Cc1ccccc1Cl)C(C)=O (stereo not drawn) [Compound 7]	2	2	
CC(=NOc1ncc(C(F)(F)F)cc1Cl)c1cccn1C [Compound 906]	2		score of disease control (degree of infection visually estimated) [4]: 2
FC(F)(F)c1cnc(ON=Cc2ccncc2)c(Cl)c1 [Compound 902]			score of disease control (degree of infection visually estimated) [1]: 2
Cc1cnc(C(=O)NOc2ncc(C(F)(F)F)cc2Cl)cn1 [Compound 1001]	2	2	
CN(NC(=O)c1c(Cl)cccc1Cl)c1ncc(C(F)(F)F)cc1Cl [Compound 109]		2	
CC(=NOc1ncc(C(F)(F)F)cc1Cl)c1ccc(C)cc1C [Compound 915]		2	
CC(=NOc1ncc(C(F)(F)F)cc1Cl)c1ccccc1 [Compound 927]			score of disease control (degree of infection visually estimated) [1]: 2
CC1CCc2ccccc2C1=NOc1ncc(C(F)(F)F)cc1Cl (stereo not drawn) [Compound 1101, 2-Methyl-1,2,3,4-tetrahydro-1-naphthalenone O-1-[3-chloror-5-(trifluoromethyl)-2-pyridyl]oxime]			score of disease control (degree of infection visually estimated) [1]: 2
CC(NC(=O)c1ncc(C(F)(F)F)cc1Cl)c1ccc(Cl)cc1 (stereo not drawn) [Compound 207]			score of disease control (degree of infection visually estimated) [4]: 2
O=[N+]([O-])c1cccc(C=NOc2ncc(C(F)(F)F)cc2Cl)c1 [Compound 923]	2		score of disease control (degree of infection visually estimated) [4]: 2

SMILES	score of disease control (degree of infection visually estimated) [2]	score of disease control (degree of infection visually estimated) [3]	further results
N#CC(=NOc1ncc(C(F)(F)F)cc1Cl)c1c(Cl)cccc1Cl (single isomer, unassigned) [Compound 938]	2		
N#CC(=NOc1ncc(C(F)(F)F)cc1Cl)c1ccccc1C#N [Compound 939]	2		
COc1ccc2c(c1)C(=NOc1ncc(C(F)(F)F)cc1Cl)CCC2 [Compound 1102]			score of disease control (degree of infection visually estimated) [1]: 2
CN1C(=O)C(=NOc2ncc(C(F)(F)F)cc2Cl)c2ccccc21 [Compound 1109]			score of disease control (degree of infection visually estimated) [4]: 2
O=[N+]([O-])c1ccc(CNCc2ncc(C(F)(F)F)cc2Cl)cc1 [Compound 51]			score of disease control (degree of infection visually estimated) [4]: 2
Cc1ccc(CNC(=O)c2ncc(C(F)(F)F)cc2Cl)cc1 [Compound 215]		2	score of disease control (degree of infection visually estimated) [1]: 2
FC(F)(F)c1cnc(ON=Cc2ccccc2Cl)c(Cl)c1 [Compound 929]			score of disease control (degree of infection visually estimated) [4]: 2
O=C(NNc1ncc(C(F)(F)F)cc1Cl)c1c(Cl)cccc1Cl [Compound 102]		2	score of disease control (degree of infection visually estimated) [1]: 2
CC(NCc1ncc(C(F)(F)F)cc1Cl)c1ccccc1Cl (stereo not drawn) [Compound 17]	2		
CCC(=NOc1ncc(C(F)(F)F)cc1Cl)c1ccc(Cl)cc1Cl [Compound 953]			score of disease control (degree of infection visually estimated) [1]: 2
N#CC(=NOc1ncc(C(F)(F)F)cc1Cl)c1ccccc1 [Compound 926]			score of disease control (degree of infection visually estimated) [4]: 2
CC(=NOc1ncc(C(F)(F)F)cc1Cl)c1cccs1 [Compound 913]	2		
CCOC(=O)C(c1ncc(C(F)(F)F)cc1Cl)N(Cc1ccc2c(c1)OCO2)C(=O)C(=O)OC (stereo not drawn) [Compound 12]		2	
CCOC(=O)C(c1ncc(C(F)(F)F)cc1Cl)N(Cc1ccccc1Cl)C(=O)C(=O)OC (stereo not drawn) [Compound 9]	2	2	
FC(F)(F)c1cnc(ON=Cc2cccc3ccccc23)c(Cl)c1 [Compound 933]			score of disease control (degree of infection visually estimated) [4]: 2
CC(NCc1ncc(C(F)(F)F)cc1Cl)c1ccc(F)c(F)c1 (stereo not drawn) [Compound 23, N-{[3-Chloro-5-(trifluoromethyl)-2-pyridyl]methyl}-N-[1-(3,4-difluorophenyl)-ethyl]amine]			score of disease control (degree of infection visually estimated) [4]: 2
CC(=NOc1ncc(C(F)(F)F)cc1Cl)c1ccccc1Cl [Compound 901]	2	2	
CC(NC(=O)c1ncc(C(F)(F)F)cc1Cl)c1ccc(Br)cc1 (stereo not drawn) [Compound 208]			score of disease control (degree of infection visually estimated) [4]: 2
COc1ccccc1C=NOc1ncc(C(F)(F)F)cc1Cl [Compound 921]		2	
CC(C)(C)C(=NOc1ncc(C(F)(F)F)cc1Cl)c1ccccn1 [Compound 912]			score of disease control (degree of infection visually estimated) [1]: 2
